Measurements as given in US20110306641A1, “NOVEL 2,6-SUBSTITUTED-3-NITROPYRIDINE DERIVATIVE, METHOD FOR PREPARING SAME, AND PHARMACEUTICAL PREPARATION INCLUDING SAME” (priority 2008, published 2011).

Tests used:
MC3T3-E1 cell = assay: Alkaline phosphatase (ALP) activity in MC3T3-E1 cells; format: cell-based; conditions: 3 days; for activity at 1 µM: Mus musculus, 72 h, read-out: ALP activity (1 μM, % of Control) MC3T3-E1 cell
Description: (§1) Differentiation and activity of osteoblasts were indirectly evaluated by measuring an ALP activity having a close relationship with osteogenesis.
(§2) Osteoblasts (Calvarial cells) prepared in Experimental Example 1 and MC3T3-E1 cells (available from RIKEN Cell Bank, Japan) were collected in α-MEM supplemented with 10% FBS, followed by cell counting. The cells were dispensed into 24-well cultureware at a density of 2×10^4 cells/well. After culturing of the cells for 24 hours, the culture media were discarded and replaced with fresh media in which test compounds were diluted to a concentration of 1 μM (1 mL/well). In addition, the vehicle control group containing 0.1% DMSO was also treated. Under the conditions where the compounds were treated, the cells were cultured in a 5% CO2 […] at 37° for 3 days. When the experiment was terminated, the supernatant was removed and the cells were washed three times with cold phosphate buffer at 4°. 0.2% Triton X-100 was added to the washed cells which were then subjected to three cycles of freezing at −70° and thawing at room temperature for the complete lysis of cells. The cell extracts were pooled and centrifuged to collect the cell supernatant which was used for the measurement of ALP activity and proteins. The protein concentration was measured using a BCA assay kit (manufactured by Sigma-Aldrich). For the measurement of ALP activity, p-nitrophenylphosphate was added to the cell supernatant which was then incubated at 37° for 30 minutes, and the reaction was terminated with the addition of 50 μL of 0.2N sodium hydroxide. The standard curve was plotted at the absorbance of 405 nm using p-nitrophenol as a standard material and then the absorbance of test materials thus reacted was measured to determine the production amount of p-nitrophenol.
(§3) The ALP activity was calculated by dividing the amount of p-nitrophenol produced from each test material by the protein amount and the reaction time. Therefore, the unit of ALP activity was given in terms of p-nitrophenol/μg protein/min. The results are given in Table 3 where the ALP activity unit of each test material was given in terms of % change through the comparison between the individual test materials and the vehicle control group.

[1] = system: osteoclastogenesis (formation of multinucleated osteoclasts); assay: Osteoclastogenesis inhibition via co-culture system (bone marrow cells + osteoblasts, TRAP staining); format: cell-based, mouse; conditions: 7 days co-culture, vs vehicle control; for Osteoclastogenesis inhibition (%): 1 μM; for inhibition at 1 µM: Mus musculus, Osteoclast, 168 h
Description: Osteoclastogenesis inhibitory effects of the compounds of the present invention were evaluated via a co-culture system (Reference: Endocrinology 137(1996), 2187 to 2190, E. Jimi et al.). A specific experimental method is as follows.
1) Preparation of Bone Marrow Cells and Osteoblasts
Femur and tibia were aseptically dissected from 6 to 8-week-old male ddY mice to harvest bone marrow cells by a conventional method using a syringe. In brief, tissues were removed from the dissected bone, the bone ends were cut off with scissors, and the bone marrow was isolated by pushing a medium-containing syringe (23G) against the one end of the cut bone. The isolated bone marrow was subjected to repeated piston movement of a syringe such that single cells were obtained (Reference: Endocrinology 123(1988), 2600 to 2602, Takahashi et al.). After removal of red blood cells within the bone marrow, the bone marrow cells recovered by centrifugation were placed in an α-MEM supplemented with 10% fetal bovine serum (FBS), followed by counting of nucleated cells and then were immediately used for a co-culture system.
For the preparation of osteoblasts (Calvarial cells), the cranial bone were aseptically dissected from 1 to 2-day-old neonatal ICR mice and subjected to continuous reaction with a 0.2% collagenase solution to separate osteoblasts. The cell-suspended supernatant was centrifuged to recover osteoblasts which were grown to full confluence in an α-MEM supplemented with 10% FBS and then diluted to a desired cell density for use in the experiment.
2) Osteoclastogenesis Inhibition Experiment Via Co-Culture System
As the medium used for a co-culture system, a differentiation medium with the addition of differentiation factors 1α,25-dihydroxyvitamin D3 (10^−8M) and dexamethasone (10^−8M) to α-MEM supplemented with 10% FBS was used for the induction of osteoclastogenesis. First, the compounds of the present invention dissolved in dimethyl sulfoxide (DMSO) at a concentration of 1 mM were diluted to 2 μM using the above-mentioned differentiation medium. As a vehicle control group, 0.2% (v/v) DMSO was added to the medium. 100 μL/well of each medium was added to 96-well plates. In addition, the above prepared bone marrow cells and osteoblasts were plated onto 96-well plates at a density of 1×10^5 cells/50 μL/well and 3×10^3 cells/50 μL/well, respectively. The total volume/well was 200 μL and the final compound concentration was 1 μM. The control group was 0.1% (v/v) DMSO. The cells were cultured with exchange of the culture media with fresh media containing differentiation factors and test materials (materials containing the compounds of the present invention) at an interval of 2 to 3 days.
7 days after culturing of cells, the formation of multinucleated osteoclasts was confirmed by microscopic examination, the medium was removed from the wells and then the cells were fixed in a 10% phosphate-buffered formalin solution. The degree of formation of mature osteoclasts was measured taking advantage of the characteristics of osteoclasts showing a positive reaction to a tartrate-resistant acid phosphatase (TRAP) staining solution. The TRAP staining solution was prepared in a manner such that naphthol AS-MS phosphate as a substrate and a coloring agent (Fast Red Violet LB salt) were dissolved in N,N-dimethylformamide, and a 0.1N NaHCO3 buffer solution containing 50 mM of tartaric acid was added thereto. Among the TRAP-positive cells under a light microscope, multinucleated osteoclasts having 6 to 7 nuclei were regarded as mature osteoclasts.
The degree of inhibition of osteoclastogenesis was calculated according to the following equation 1. The results are summarized in Table 2 below (Experiments were carried out for 4 wells/experimental group (n=4), and the results are given in terms of mean±standard deviation) […]

Calvarial cell [2] = assay: Cytotoxicity test (MTT) in osteoblasts (calvarial cells); conditions: 1 μM, 72 hours, vs vehicle control
Description: Drugs were diluted to a concentration of 2 μM in α-MEM culture media supplemented with 10% FBS. The vehicle control group was established to contain 0.2% DMSO. 100 μL/well of the diluted drugs were dispensed into 96-well plates to which osteoblasts (calvarial cells) prepared in Experimental Example 1 were then added at a density of 1.0×10^4 cells/100 μL/well. Here, the final compound concentration in the cell culture was 1 μM, and the vehicle control group contained 0.1% DMSO. The cells were cultured in a 5% CO2 inhibitorr at 37° for 72 hours. 25 μL of 3-(4,5-dimethyl-2-thiazolyl)-2,5-diphenyl-2H-tetrazolium bromide (MTT) dissolved in PBS (2 mg/mL) was added to each cell culture 4 hours before the end of culture. After completion of the reaction, the plates were centrifuged, the media were discarded, and 100 μL of formazan was added and dissolved in dimethyl sulfoxide (DMSO). Finally, the absorbance of the developed plates was measured at 540 nm. The cell viability was expressed as % concentration in comparison with the vehicle control group.

Calvarial cell [3] = assay: Alkaline phosphatase (ALP) activity in osteoblasts (Calvarial cells); format: cell-based, mouse; conditions: 3 days; for activity at 1 µM: Mus musculus, 72 h, read-out: ALP activity (1 μM, % of Control) Calvarial cell
Description: as §1, §2, §3

Compound	ALP activity (1 μM, % of Control) MC3T3-E1 cell (MC3T3-E1 cell)	Osteoclastogenesis inhibition (%) [1] [%]	Cell viability (%) Calvarial cell (Calvarial cell [2]) [%]	ALP activity (1 μM, % of Control) Calvarial cell (Calvarial cell [3])	activity at 1 µM (MC3T3-E1 cell) [%]	activity at 1 µM (Calvarial cell [3]) [%]	inhibition at 1 µM [1] [%]
CCN(CCO)c1ccc([N+](=O)[O-])c(Nc2ccc3[nH]ncc3c2)n1 [Compound 11, 2-(1H-indazol-5-yl)amino-6-[(N-ethyl-2-hydroxyethyl)amino]-3-nitropyridine]	140 % of Control	98	105	143 % of Control			
CN(C)CC(C)(C)CNc1ccc([N+](=O)[O-])c(Nc2ccc3[nH]ncc3c2)n1 [Compound 16, 2-(1H-indazol-5-yl)amino-6-[(3-dimethylamino-2,2-dimethyl)-propylamino]-3-nitropyridine]	144 % of Control	89	104	123 % of Control			
O=[N+]([O-])c1ccc(NCCN2CCOCC2)nc1Nc1ccc2[nH]ncc2c1 [Compound 37, 2-(1H-indazol-5-yl)amino-6-[(2-morpholino)ethylamino]-3-nitropyridine]			94		141	126	
O=[N+]([O-])c1ccc(N2CCNCC2)nc1Nc1ccc2[nH]ncc2c1 [Compound 10, 2-(1H-indazol-5-yl)amino-6-(piperazin-1-yl)-3-nitropyridine]			95		124	189	99
CN(CCO)c1ccc([N+](=O)[O-])c(Nc2ccc3[nH]ncc3c2)n1 [Compound 7, 2-(1H-indazol-5-yl)amino-6-[(N-methyl-2-hydroxyethyl)amino]-3-nitropyridine]	155 % of Control	72	103	221 % of Control			
CC(C)CNc1ccc([N+](=O)[O-])c(Nc2ccc3[nH]ncc3c2)n1 [Compound 8, 2-(1H-indazol-5-yl)amino-6-(isobutylamino)-3-nitropyridine]			96		240	157	100
CC(C)Nc1ccc([N+](=O)[O-])c(Nc2ccc3[nH]ncc3c2)n1 [Compound 6, 2-(1H-indazol-5-yl)amino-6-(isopropylamino)-3-nitropyridine]			97		207	188	100
CNc1ccc([N+](=O)[O-])c(Nc2ccc3[nH]ncc3c2)n1 [Compound 5, 2-(1H-indazol-5-yl)amino-6-(methylamino)-3-nitropyridine]			112		206	193	89
O=[N+]([O-])c1ccc(N2CCC(O)CC2)nc1Nc1ccc2[nH]ncc2c1 [Compound 9, 2-(1H-indazol-5-yl)amino-6-(4-hydroxypiperidino)-3-nitropyridine]			105		112	166	100
CC(C)(C)Nc1ccc([N+](=O)[O-])c(Nc2ccc3[nH]ncc3c2)n1 [Compound 12, 2-(1H-indazol-5-yl)amino-6-(t-butylamino)-3-nitropyridine]			109		136	152	99
O=[N+]([O-])c1ccc(NCCc2ccccn2)nc1Nc1ccc2cn[nH]c2c1 [Compound 14, 2-(1H-indazol-6-yl)amino-6-[(2-pyridyl)ethylamino]-3-nitropyridine]			91		121	111	98
CN(CC1OCCO1)c1ccc([N+](=O)[O-])c(Nc2ccc3[nH]ncc3c2)n1 [Compound 17, 2-(1H-indazol-5-yl)amino-6-[(N-[1,3]-dioxolan-2-ylmethyl)-methylamino]-3-nitropyridine]	188 % of Control	92	89	139 % of Control			
CC(C)c1nccn1-c1ccc([N+](=O)[O-])c(Nc2ccc3[nH]ncc3c2)n1 [Compound 3, 2-(1H-indazol-5-yl)amino-6-(2-isopropylimidazol-1-yl)-3-nitropyridine]			118		172	148	95
